# Earlier results, collected in publication PMC4357254, “Molecular cloning and characterization of the allatotropin precursor and receptor in the desert locust, Schistocerca gregaria” (Frontiers in Neuroscience, 2015).
# Where no end group is shown, it is not given here.
# What was measured:
# ATR of M. sexta = settings: ref Horodyski et al., [2011]
# Source text: (§1) ATs exert effects on their cellular targets by binding to receptors with high affinity binding sites that are members of the family of rhodopsin-like G protein-coupled receptors (GPCRs). The AT receptors (ATRs) are orthologous to vertebrate orexin/hypocretin receptors. To date, five ATRs have been characterized; namely the neuropeptide 16 receptor in Bombyx mori (Yamanaka et al., [2008]), the receptors of M. sexta (Horodyski et al., [2011]), Tribolium castaneum (Vuerinckx et al., [2011]), Aedes aegypti (Nouzova et al., [2012]) and Bombus terrestris (Verlinden et al., [2013]). The first three w ...
# [1] = test system: ATR receptor of B. terrestris; settings: ref Verlinden et al., [2013]
# Source text: as §1
# T. castaneum receptor = settings: ref Vuerinckx et al., [2011]
# Source text: as §1
# [2] = test system: neuropeptide 16 receptor in Bombyx mori; settings: ref Yamanaka et al., [2008]
# Source text: as §1
# corpora allata (CA) = settings: in vitro; ref Kataoka et al., [1989]
# Source text: Allatotropin (AT) was originally identified as an amidated tridecapeptide isolated from the nervous system of the lepidopteran Manduca sexta. […] Most ATs have a conserved C-terminal pentapeptide that consists of a TARGFa motif although the hymenopteran AT has an exceptional TAYGFa C-terminal (Veenstra et al., [2012]). There are also AT-like peptides (ATLs) that contain more variation in their C-terminal motif but t ...
substance,measurement,setting,value
"Manse-AT: amidated tridecapeptide isolated from the nervous system of the lepidopteran Manduca sexta (GFKNVEMMTARGF-NH2; UniProt P21786 37-49, looked up)",activation of M. sexta ATR,ATR of M. sexta,dose-dependently activated
same,activation of B. terrestris ATR,[1],responded
same,concentrations needed for activation of B. terrestris ATR,[1]; relative to other ATRs,much higher concentrations were needed
same,activation of T. castaneum ATR,T. castaneum receptor,dose-dependently activated
same,activation of B. mori neuropeptide 16 receptor,[2],dose-dependently activated
same,JH biosynthesis in the corpora allata,corpora allata (CA),stimulate juvenile hormone (JH) biosynthesis
